Laboratory results published in ChEMBL document CHEMBL3774345, “Synthesis of new diarylamides with pyrimidinyl pyridine scaffold and evaluation of their anti-proliferative effect on cancer cell lines” (Bioorg Med Chem Lett, 2016).

Columns and labels:
Format in all cases: functional
[1] = Cytotoxicity against human HOP62 cells assessed as cell growth at 10 uM after 24 hrs by SRB assay; conditions: HOP-62, 24 h, read-out: Activity
[2] = Cytotoxicity against human SF539 cells assessed as cell growth at 10 uM after 24 hrs by SRB assay; conditions: SF-539, 24 h, read-out: Activity
786-0 = test: Cytotoxicity against human 786-0 cells assessed as cell growth at 10 uM after 24 hrs by SRB assay; conditions: 786-0, 24 h, read-out: Activity
[3] = Cytotoxicity against human TK10 cells assessed as cell growth at 10 uM after 24 hrs by SRB assay; conditions: TK-10, 24 h, read-out: Activity
[4] = Cytotoxicity against human RXF393 cells assessed as cell growth at 10 uM after 24 hrs by SRB assay; conditions: RXF 393, 24 h, read-out: Activity
MDA-MB-468 = test: Cytotoxicity against human MDA-MB-468 cells assessed as cell growth at 10 uM after 24 hrs by SRB assay; conditions: MDA-MB-468, 24 h, read-out: Activity
[5] = Cytotoxicity against human RPMI8226 cells assessed as cell growth at 10 uM after 24 hrs by SRB assay; conditions: RPMI-8226, 24 h, read-out: Activity
[6] = Cytotoxicity against human UACC62 cells assessed as cell growth at 10 uM after 24 hrs by SRB assay; conditions: UACC-62, 24 h, read-out: Activity
CCRF-CEM = test: Cytotoxicity against human CCRF-CEM cells assessed as cell growth at 10 uM after 24 hrs by SRB assay; conditions: read-out: Activity
EKVX = test: Cytotoxicity against human EKVX cells assessed as cell growth at 10 uM after 24 hrs by SRB assay; conditions: read-out: Activity
[7] = Cytotoxicity against human OVCAR3 cells assessed as cell growth at 10 uM after 24 hrs by SRB assay; conditions: OVCAR-3, 24 h, read-out: Activity
T47D = test: Cytotoxicity against human T47D cells assessed as cell growth at 10 uM after 24 hrs by SRB assay; conditions: read-out: Activity
NCI-H460 = test: Cytotoxicity against human NCI-H460 cells assessed as cell growth at 10 uM after 24 hrs by SRB assay; conditions: NCI-H460, 24 h, read-out: Activity
M14 = test: Cytotoxicity against human M14 cells assessed as cell growth at 10 uM after 24 hrs by SRB assay; conditions: M14, 24 h, read-out: Activity
[8] = Cytotoxicity against human IGROV1 cells assessed as cell growth at 10 uM after 24 hrs by SRB assay; conditions: IGROV-1, 24 h, read-out: Activity
A498 = test: Cytotoxicity against human A498 cells assessed as cell growth at 10 uM after 24 hrs by SRB assay; conditions: A498, 24 h, read-out: Activity
[9] = Cytotoxicity against human HCC2998 cells assessed as cell growth at 10 uM after 24 hrs by SRB assay; conditions: HCC 2998, 24 h, read-out: Activity
[10] = Cytotoxicity against human PC3 cells assessed as cell growth at 10 uM after 24 hrs by SRB assay; conditions: PC-3, 24 h, read-out: Activity
MCF7 = test: Cytotoxicity against human MCF7 cells assessed as cell growth at 10 uM after 24 hrs by SRB assay; conditions: MCF7, 24 h, read-out: Activity
[11] = Cytotoxicity against human UO31 cells assessed as cell growth at 10 uM after 24 hrs by SRB assay; conditions: UO-31, 24 h, read-out: Activity
[12] = Cytotoxicity against human OVCAR8 cells assessed as cell growth at 10 uM after 24 hrs by SRB assay; conditions: OVCAR-8, 24 h, read-out: Activity
[13] = Cytotoxicity against human HCT116 cells assessed as cell growth at 10 uM after 24 hrs by SRB assay; conditions: HCT-116, 24 h, read-out: Activity
HT-29 = test: Cytotoxicity against human HT-29 cells assessed as cell growth at 10 uM after 24 hrs by SRB assay; conditions: HT-29, 24 h, read-out: Activity
[14] = Cytotoxicity against human LOXIMVI cells assessed as cell growth at 10 uM after 24 hrs by SRB assay; conditions: LOX IMVI, read-out: Activity
NCI-H322M = test: Cytotoxicity against human NCI-H322M cells assessed as cell growth at 10 uM after 24 hrs by SRB assay; conditions: read-out: Activity
KM12 = test: Cytotoxicity against human KM12 cells assessed as cell growth at 10 uM after 24 hrs by SRB assay; conditions: KM12, 24 h, read-out: Activity
[15] = Cytotoxicity against human OVCAR4 cells assessed as cell growth at 10 uM after 24 hrs by SRB assay; conditions: OVCAR-4, 24 h, read-out: Activity
[16] = Cytotoxicity against human Hs 578T cells assessed as cell growth at 10 uM after 24 hrs by SRB assay; conditions: read-out: Activity
MDA-MB-231 = test: Cytotoxicity against human MDA-MB-231 cells assessed as cell growth at 10 uM after 24 hrs by SRB assay; conditions: MDA-MB-231, 24 h, read-out: Activity
[17] = Cytotoxicity against human COLO205 cells assessed as cell growth at 10 uM after 24 hrs by SRB assay; conditions: COLO 205, 24 h, read-out: Activity
[18] = Cytotoxicity against human HOP92 cells assessed as cell growth at 10 uM after 24 hrs by SRB assay; conditions: HOP-92, 24 h, read-out: Activity
Malme-3M = test: Cytotoxicity against human MALME-3M cells assessed as cell growth at 10 uM after 24 hrs by SRB assay; conditions: read-out: Activity
A549 = test: Cytotoxicity against human A549 cells assessed as cell growth at 10 uM after 24 hrs by SRB assay; conditions: A549, 24 h, read-out: Activity
[19] = Cytotoxicity against human SNB19 cells assessed as cell growth at 10 uM after 24 hrs by SRB assay; conditions: SNB-19, 24 h, read-out: Activity
U-251 = test: Cytotoxicity against human U251 cells assessed as cell growth at 10 uM after 24 hrs by SRB assay; conditions: U-251, 24 h, read-out: Activity
SK-MEL-2 = test: Cytotoxicity against human SK-MEL-2 cells assessed as cell growth at 10 uM after 24 hrs by SRB assay; conditions: SK-MEL-2, 24 h, read-out: Activity
[20] = Cytotoxicity against human SKOV3 cells assessed as cell growth at 10 uM after 24 hrs by SRB assay; conditions: SK-OV-3, 24 h, read-out: Activity
SK-MEL-5 = test: Cytotoxicity against human SK-MEL-5 cells assessed as cell growth at 10 uM after 24 hrs by SRB assay; conditions: SK-MEL-5, 24 h, read-out: Activity
MDA-MB-435 = test: Cytotoxicity against human MDA-MB-435 cells assessed as cell growth at 10 uM after 24 hrs by SRB assay; conditions: MDA-MB-435, 24 h, read-out: Activity

| SMILES | growth at 10 µM [1] | growth at 10 µM [2] | growth at 10 µM (786-0) | growth at 10 µM [3] | growth at 10 µM [4] | growth at 10 µM (MDA-MB-468) | growth at 10 µM [5] | growth at 10 µM [6] | growth at 10 µM (CCRF-CEM) | growth at 10 µM (EKVX) | growth at 10 µM [7] | growth at 10 µM (T47D) | growth at 10 µM (NCI-H460) | growth at 10 µM (M14) | growth at 10 µM [8] | growth at 10 µM (A498) | growth at 10 µM [9] | growth at 10 µM [10] | growth at 10 µM (MCF7) | growth at 10 µM [11] | further results |
| --- | --- | --- | --- | --- | --- | --- | --- | --- | --- | --- | --- | --- | --- | --- | --- | --- | --- | --- | --- | --- | --- |
| COCCCNc1nc(NC(=O)c2ccc(Cl)cc2C)cc(-c2cccnc2)n1 | 99.3% | 89.9% | 85.4% | 88.5% | 91.1% | 111% | 90.2% | 109% | 96.5% | 108% | 117% | 89.4% | 102% | 103% | 106% | 109% | 103% | 110% | 81.1% | 95.9% | growth at 10 µM [12]: 94.2%; growth at 10 µM [13]: 101%; growth at 10 µM (HT-29): 105%; growth at 10 µM [14]: 107%; growth at 10 µM (NCI-H322M): 102%; growth at 10 µM (KM12): 104%; growth at 10 µM [15]: 106%; growth at 10 µM [16]: 103%; growth at 10 µM (MDA-MB-231): 94%; growth at 10 µM [17]: 111%; growth at 10 µM [18]: 67%; growth at 10 µM (Malme-3M): 103%; growth at 10 µM (A549): 79.8%; growth at 10 µM [19]: 91.7%; growth at 10 µM (U-251): 112%; growth at 10 µM (SK-MEL-2): 107%; growth at 10 µM [20]: 98.4%; growth at 10 µM (SK-MEL-5): 84.1%; growth at 10 µM (MDA-MB-435): 95.6% |
| Cc1cc(Cl)ccc1C(=O)Nc1cc(-c2cccnc2)nc(NCCCN2CCOCC2)n1 | 91.5% | 91.4% | 77.2% | 87.2% | 101% | 88.5% | 104% | 102% | 101% | 99.8% | 111% | 96.4% | 110% | 101% | 109% | 95.2% | 100% | 107% | 90.1% | 89.2% | growth at 10 µM [12]: 96.9%; growth at 10 µM [13]: 99.8%; growth at 10 µM (HT-29): 95.7%; growth at 10 µM [14]: 109%; growth at 10 µM (NCI-H322M): 102%; growth at 10 µM (KM12): 101%; growth at 10 µM [15]: 97.7%; growth at 10 µM [16]: 96.9%; growth at 10 µM (MDA-MB-231): 97.3%; growth at 10 µM [17]: 101%; growth at 10 µM [18]: 95.9%; growth at 10 µM (Malme-3M): 104%; growth at 10 µM (A549): 87.7%; growth at 10 µM [19]: 89.8%; growth at 10 µM (U-251): 96.2%; growth at 10 µM (SK-MEL-2): 106%; growth at 10 µM [20]: 93.7%; growth at 10 µM (SK-MEL-5): 92.7%; growth at 10 µM (MDA-MB-435): 101% |
| O=C(Nc1cc(-c2cccnc2)nc(NCCCN2CCOCC2)n1)c1cc(Br)cc(C(F)(F)F)c1 | 69.4% | 66.5% | 51.8% | 65.4% | 52.8% | 52.8% | 30.2% | -6.13% | 42.8% | 77.4% | 80% | 46.4% | 56% | -72.1% | 63.1% | 53.7% | 37.8% | 57.7% | 38.6% | 42% | growth at 10 µM [12]: 58.5%; growth at 10 µM [13]: 35.7%; growth at 10 µM (HT-29): 8.99%; growth at 10 µM [14]: -16.8%; growth at 10 µM (NCI-H322M): 58.2%; growth at 10 µM (KM12): 80%; growth at 10 µM [15]: 62.2%; growth at 10 µM [16]: 54%; growth at 10 µM (MDA-MB-231): 32.7%; growth at 10 µM [17]: 1.11%; growth at 10 µM [18]: 34.6%; growth at 10 µM (Malme-3M): -7.83%; growth at 10 µM (A549): 67.9%; growth at 10 µM [19]: 69.6%; growth at 10 µM (U-251): 33.1%; growth at 10 µM (SK-MEL-2): 81.3%; growth at 10 µM [20]: 92.3%; growth at 10 µM (SK-MEL-5): 3.78%; growth at 10 µM (MDA-MB-435): 9.55% |
